Data reported in US9670161B2, “5-fluoro-N-(pyridin-2-yl)pyridin-2-amine derivatives containing a sulfone group” (BAYER PHARMA AKTIENGESELLSCHAFT, priority 2012, dated 2017).

Experiments:
CDK2/CycE = CDK2/CycE (Homo sapiens (Human), UniProt P24941); experiment: CDK2/CycE high ATP kinase assay (TR-FRET, 2 mM ATP); format: biochemical; conditions: Method 2b
Procedure: 2b. CDK2/CycE High ATP Kinase Assay
CDK2/CycE-inhibitory activity of compounds of the present invention at 2 mM adenosine-tri-phosphate (ATP) was quantified employing the CDK2/CycE TR-FRET (TR-FRET=Time Resolved Fluorescence Energy Transfer) assay as described in the following paragraphs.
Recombinant fusion proteins of GST and human CDK2 and of GST and human CycE, expressed in insect cells (Sf9) and purified by Glutathion-Sepharose affinity chromatography, were purchase from ProQinase GmbH (Freiburg, Germany). As substrate for the kinase reaction biotinylated peptide biotin-Ttds-YISPLKSPYKISEG (C-terminus in amid form) was used which can be purchased e.g. form the company JERINI peptide technologies (Berlin, Germany).
For the assay 50 nl of a 100 fold concentrated solution of the test compound in DMSO was pipetted into a black low volume 384 well microtiter plate (Greiner Bio-One, Frickenhausen, Germany), 2 μl of a solution of CDK2/CycE in aqueous assay buffer [50 mM Tris/HCl pH 8.0, 10 mM MgCl2, 1.0 mM dithiothreitol, 0.1 mM sodium ortho-vanadate, 0.01% (v/v) Nonidet-P40 (Sigma)] were added and the mixture was incubated for 15 min at 22° C. to allow pre-binding of the test compounds to the enzyme before the start of the kinase reaction. Then the kinase reaction was started by the addition of 3 μl of a solution ATP (3.33 mM=>final conc. in the 5 μl assay volume is 2 mM) and substrate (1.25 μM=>final conc. in the 5 μl assay volume is 0.75 μM) in assay buffer and the resulting mixture was incubated for a reaction time of 25 min at 22° C. The concentration of CDK2/CycE was adjusted depending of the activity of the enzyme lot and was chosen appropriate to have the assay in the linear range, typical concentrations were in the range of 15 ng/ml. The reaction was stopped by the addition of 5 μl of a solution of TR-FRET detection reagents (0.2 μM streptavidine-XL665 [Cisbio Bioassays, Codolet, France] and 1 nM anti-RB(pSer807/pSer811)-antibody from BD Pharmingen [#558389] and 1.2 nM LANCE EU-W1024 labeled anti-mouse IgG antibody [Perkin-Elmer, product no. AD0077, as an alternative a Terbium-cryptate-labeled anti-mouse IgG antibody from Cisbio Bioassays can be used]) in an aqueous EDTA-solution (100 mM EDTA, 0.2% (w/v) bovine serum albumin in 100 mM HEPES/NaOH pH 7.0).
The resulting mixture was incubated 1 h at 22° C. to allow the formation of complex between the phosphorylated biotinylated peptide and the detection reagents. Subsequently the amount of phosphorylated substrate was evaluated by measurement of the resonance energy transfer from the Eu-chelate to the streptavidine-XL. Therefore, the fluorescence emissions at 620 nm and 665 nm after excitation at 350 nm were measured in a TR-FRET reader, e.g. a Rubystar (BMG Labtechnologies, Offenburg, Germany) or a Viewlux (Perkin-Elmer). The ratio of the emissions at 665 nm and at […] was taken as the measure for the amount of phosphorylated substrate. The data were normalised (enzyme reaction without inhibitor=0% inhibition, all other assay components but no enzyme=100% inhibition).

[1] = test system: HeLa-MaTu-ADR, multidrug-resistant human cervical carcinoma cells; experiment: Proliferation assay, HeLa-MaTu-ADR (crystal violet); format: cell-based; conditions: 96 h, 4 days, read-out: Inhibition of HeLa-MaTu-ADR cell proliferation IC50
Procedure: (§1) Cultivated tumour cells (HeLa, human cervical tumour cells, ATCC CCL-2; NCI-H460, human non-small cell lung carcinoma cells, ATCC HTB-177; A2780, human ovarian carcinoma cells, ECACC #93112519; DU 145, hormone-independent human prostate carcinoma cells, ATCC HTB-81; HeLa-MaTu-ADR, multidrug-resistant human cervical carcinoma cells, EPO-GmbH Berlin; Caco-2, human colorectal carcinoma cells, ATCC HTB-37; B16F10, mouse melanoma cells, ATCC CRL-6475) were plated at a density of 5,000 cells/well (DU145, HeLa-MaTu-ADR), 3,000 cells/well (NCI-H460, HeLa), 2,500 cells/well (A2780), 1,500 cells/well (Caco-2), or 1,000 cells/well (B16F10) in a 96-well multititer plate in 200 μL of their respective growth medium supplemented 10% fetal calf serum. […] Cell proliferation was determined by staining the cells with crystal violet: the cells were fixed by adding 20 μl/measuring point of an 11% glutaric aldehyde solution for 15 minutes at room temperature. […] The extinction was determined by photometry at a wavelength of 595 nm. The change of cell number, in percent, was calculated by normalization of the measured values to the extinction values of the zero-point plate (=0%) and the extinction of the untreated (0 μm) cells (=100%). […]

[2] = test system: NCI-H460, human non-small cell lung carcinoma cells; experiment: Proliferation assay, NCI-H460 (crystal violet); format: cell-based; conditions: 96 h, NCI-H460, 4 days, read-out: Inhibition of NCI-H460 cell proliferation IC50
Procedure: as §1

[3] = test system: DU 145, hormone-independent human prostate carcinoma cells; experiment: Proliferation assay, DU145 (crystal violet); format: cell-based; conditions: DU-145, 96 h, DU145, 4 days, read-out: Inhibition of DU145 cell proliferation IC50
Procedure: as §1

[4] = test system: Caco-2, human colorectal carcinoma cells; experiment: Proliferation assay, Caco-2 (crystal violet); format: cell-based; conditions: 96 h, Caco-2, 4 days, read-out: Inhibition of Caco-2 cell proliferation IC50
Procedure: as §1

[5] = test system: B16F10, mouse melanoma cells; experiment: Proliferation assay, B16F10 (crystal violet); format: cell-based; conditions: B16-F10, 96 h, B16F10, 4 days, read-out: Inhibition of B16F10 cell proliferation IC50
Procedure: as §1

SMILES | IC50 (CDK2/CycE) [nM] | IC50 [1] [nM] | IC50 [2] [nM] | IC50 [3] [nM] | IC50 [4] [nM] | IC50 [5] [nM]
COc1cc(F)ccc1-c1cc(Nc2cc(CS(C)(=O)=O)ccn2)ncc1F [Example 1, 5-Fluoro-4-(4-fluoro-2-methoxyphenyl)-N-{4-[(methylsulfonyl)methyl]pyridin-2-yl}pyridin-2-amine] | 2180 | 37 | 62 | 56 | 70 | 100
COc1cc(F)ccc1-c1cc(Nc2cc(CS(C)(=O)=O)cc(C)n2)ncc1F [Example 2, 5-Fluoro-4-(4-fluoro-2-methoxyphenyl)-N-{6-methyl-4-[(methylsulfonyl)methyl]pyridin-2-yl}pyridin-2-amine] | 625 | 59 | 94 | 84 | 37 | 100
COc1cc(F)ccc1-c1cc(Nc2cc(CS(C)(=O)=O)cc(F)n2)ncc1F [Example 3, 5-Fluoro-4-(4-fluoro-2-methoxyphenyl)-N-{6-fluoro-4-[(methylsulfonyl)methyl]pyridin-2-yl}pyridin-2-amine] | 787 |  |  |  |  | 

Next, values leading:

IC50 (CDK2/CycE) [nM] | IC50 [1] [nM] | IC50 [2] [nM] | IC50 [3] [nM] | IC50 [4] [nM] | IC50 [5] [nM] | SMILES
169 |  |  |  |  |  | COc1cc(F)ccc1-c1cc(Nc2cc(CS(C)(=O)=O)cc(C(F)(F)F)n2)ncc1F [Example 4, 5-Fluoro-4-(4-fluoro-2-methoxyphenyl)-N-{4-[(methylsulfonyl)methyl]-6-(trifluoromethyl)pyridin-2-yl}pyridin-2-amine]
103 |  |  |  |  |  | COc1cc(F)ccc1-c1cc(Nc2cc(CS(C)(=O)=O)cc(C(F)F)n2)ncc1F [Example 5, N-{6-(Difluoromethyl)-4-[(methylsulfonyl)methyl]pyridin-2-yl}-5-fluoro-4-(4-fluoro-2-methoxyphenyl)pyridin-2-amine]
